This passage reports inhibition results from patent US10717720B2, “Modified compound of andrographolide” (Heilongjiang Zhenbaodao Pharmaceutical Co., Ltd., priority 2015, dated 2020).

The first assay deals with LPS-induced IL-6 release level from THP-1 cells. Nature of the assay: Test of IL-6 release from THP-1 cells (LPS-induced, IL-6 in supernatant detected by CBA). It is filed as cell-based. The settings on record: Homo sapiens, THP-1, 24 h, read-out: Inhibition rate @ 10 uM. As to the method:
Test of IL-6 Release from THP-1 Cells
The inhibitory effect of the compound on LPS-induced IL-6 release level from THP-1 cells was evaluated by measuring the level of IL-6 in the cell culture supernatant.
4 ul was taken from each above solution and added to lml of culture solution to make 120 uM, 40 uM, 12 uM, 4 uM. 50 ul per well was taken and added to wells with cells to give final concentrations of 30 uM, 10 uM, 3 uM, and 1 uM, respectively. Dexamethasone was added as a positive drug into an individual cell well with a final concentration of 100 nM. • c) Cell stimulation
The LPS 1 mg/ml solution was diluted to 800 ng/ml with the culture solution and added to the cell culture wells at 50 ul/well. • d) Cell incubation and detection
The cell culture plate was placed in a 37° C. incubator, and the supernatant was collected after culturing for 24 hours. The level of IL-6 in the supernatant was detected by CBA.
For the compound `C=C1CCC2[C@]3(C)CO[C@@H](C4CCCC4)O[C@@H]3CC[C@@]2(C)[C@@H]1CCOc1ccn(CC(=O)O)c(=O)c1` (stereo partly drawn) [Compound 428, 2-(4-(2-((3R,4aR,6aS,7R,10bR)-3-cyclopentyl-6a,10b-dimethyl-8-dihydromethylenedecahydro-1H-naphtho[2,1-d][1,3]dioxin-7-yl)ethoxy)-2-carbonylpyridin-1(2H)-yl)acetic acid], the inhibition at 10 µM was 30 to 60%.
Consider `C=C1CCC2[C@]3(C)CO[C@@H](C4CCCC4)O[C@@H]3CC[C@@]2(C)[C@@H]1CCOC1CCN(C(=O)CN)CC1` (stereo partly drawn) [Compound 373, 2-Amino-1-(4-(2-((3R,4aR,6aS,7R,10bR)-3-cyclopentyl-6a,10b-dimethyl-8-methylenedecahydro-1H-naphtho[2,1-d][1,3]dioxin-7-yl)ethoxy)piperidine-1-yl)acetamide], for which the inhibition at 10 µM lay within 30 to 60%.

The same assay, now with this note: Homo sapiens; inflammatory factor IL-6 detected by CBA; compound 10 uM; LPS-stimulated THP-1 cells, supernatant after 24 hours; read-out: Inhibition rate @ 10 uM.
On to `C=C1CCC2[C@]3(C)CO[C@@H](C4CCCC4)O[C@@H]3CC[C@@]2(C)[C@@H]1CCOC1CCN(CCO)CC1` (stereo partly drawn) [Compound 482, 2-(4-(2-((3R,4aR,6aS,7R,10bR)-3-cyclopentyl-6a,10b-dimethyl-8-dihydromethylenedecahydro-1H-naphtho[2,1-d][1,3]dioxin-7-yl)ethoxy)piperidine-1-yl)ethanol], for which the inhibition at 10 µM is greater than 60%.
Regarding `C=C1CCC2[C@]3(C)CO[C@@H](c4ccc(F)c(F)c4)O[C@@H]3CC[C@@]2(C)[C@@H]1CCN1C(=O)COC1=O` (stereo partly drawn) [Compound 215, 3-(2-((3R,4aR,6aS,7R,10bR)-3-(3,4-difluorophenyl)-6a, 10b-dimethyl-8-methylenedecahydro-1H-naphtho[2,1-d][1,3]dioxin-7-yl)ethyl)oxazolidine-2,4-dione], the inhibition at 10 µM is less than 30%.
Same read-out and setting: the figure for `C=C1CCC2[C@]3(C)CO[C@@H](C4CCCC4)O[C@@H]3CC[C@@]2(C)[C@@H]1CCO` (stereo partly drawn) [Compound 399, 2-((3R,4aR,6aS,7R,10bR)-3-cyclopentyl-6a,10b-dimethyl-8-dihydromethylenedecahydro-1H-naphtho[2,1-d][1,3]dioxin-7-yl)ethanol] is greater than 60%; for `C=C1CCC2[C@]3(C)CO[C@@H](C4CCCC4)O[C@@H]3CC[C@@]2(C)[C@@H]1CCOc1ccncc1C(=O)O` (stereo partly drawn) [Compound 397, 4-(2-((3R,4aR,6aS,7R,10bR)-3-cyclopentyl-6a,10b-dimethyl-8-dihydromethylenedecahydro-1H-naphtho[2,1-d][1,3]dioxin-7-yl)ethoxy)nicotinic acid] it is greater than 60%.
On the same count and under the same terms, the figure for `C=C1CCC2[C@]3(C)CO[C@@H](C4CCCC4)O[C@@H]3CC[C@@]2(C)[C@@H]1CCOc1ccncc1F` (stereo partly drawn) [Compound 344, 4-(2-((3R,4aR,6aS,7R,10bR)-3-cyclopentyl-6a,10b-dimethyl-8-dihydromethylenedecahydro-1H-naphtho[2,1-d][1,3]dioxin-7-yl)ethoxy)-3-fluoropyridine] is greater than 60%; for `C=C1CCC2[C@]3(C)CO[C@@H](C4CCCC4)O[C@@H]3CC[C@@]2(C)[C@@H]1CCN1CCC(OC)C1` (some centres unmarked) [Compound 116] it is 30 to 60%; for `C=C1CCC2[C@]3(C)CO[C@@H](C4CCCC4)O[C@@H]3CC[C@@]2(C)[C@@H]1CCOc1cnccc1C(=O)O` (stereo partly drawn) [Compound 415, 3-(2-((3R,4aR,6aS,7R,10bR)-3-cyclopentyl-6a,10b-dimethyl-8-dihydromethylenedecahydro-1H-naphtho[2,1-d][1,3]dioxin-7-yl)ethoxy)isonicotinic acid] it is greater than 60%.
On the same count and under the same terms, the figure for `C=C1CCC2[C@]3(C)CO[C@@H](C4CCCC4)O[C@@H]3CC[C@@]2(C)[C@@H]1CCOC1CCN(CC(F)(F)F)CC1` (stereo partly drawn) [Compound 483, 4-(2-((3R,4aR,6aS,7R,10bR)-3-cyclopentyl-6a,10b-dimethyl-8-dihydromethylenedecahydro-1H-naphtho[2,1-d][1,3]dioxin-7-yl)ethoxy)-1-(2,2,2,-trifluoroethyl)piperidine] is 30 to 60%; for `C=C1CCC2[C@]3(C)COC(C)(C)O[C@@H]3CC[C@@]2(C)[C@@H]1CCOc1ccncc1` (stereo partly drawn) [Compound 402, 4-(2-((4aR,6aS,7R,10bR)-3,3,6a, 10b-tetramethyl-8-dihydromethylenedecahydro-1H-naphtho[2,1-d][1,3]dioxin-7-yl)ethoxy)pyridine] it is greater than 60%; for `C=C1CCC2[C@]3(C)CO[C@@H](C4CCCC4)O[C@@H]3CC[C@@]2(C)[C@@H]1CCOc1cc(C#N)ccc1C(=O)O` (stereo partly drawn) [Compound 445, 4-cyano-2-(2-((3R,4aR,6aS,7R,10bR)-3-cyclopentyl-6a,10b-dimethyl-8-dihydromethylenedecahydro-1H-naphtho[2,1-d][1,3]dioxin-7-yl)ethoxy)benzoic acid] it is less than 30%.
Regarding `C=C1CCC2[C@]3(C)CO[C@@H](C4CCCC4)O[C@@H]3CC[C@@]2(C)[C@@H]1CCN1CCOCC1` (stereo partly drawn) [Compound 123, 4-(2-((3R,4aR,6aS,7R,10bR)-3-cyclopentyl-6a,10b-dimethyl-8-methylenedecahydro-1H-naphtho[2,1-d][1,3]dioxin-7-yl)ethyl)morpholine], the inhibition at 10 µM is less than 30%.
Regarding `C=C1CCC2[C@](C)(CO)[C@H](O)CC[C@@]2(C)[C@@H]1CCOc1ccncc1` (stereo partly drawn) [Compound 385, (1R,2R,4aS,5R)-1-(hydroxymethyl)-1,4a-dimethyl-6-dihydromethylene-5-(2-(pyridin-4-oxy)ethyl) decahydronaphthalene-2-ol], the inhibition at 10 µM is greater than 60%.
For `C=C1CCC2[C@]3(C)CO[C@@H](C4CCCC4)O[C@@H]3CC[C@@]2(C)[C@@H]1CCOc1ccc(F)cc1C(=O)O` (stereo partly drawn) [Compound 409, 2-(2-((3R,4aR,6aS,7R,10bR)-3-cyclopentyl-6a,10b-dimethyl-8-dihydromethylenedecahydro-1H-naphtho[2,1-d][1,3]dioxin-7-yl)ethoxy)-5-fluorobenzoic acid], the inhibition at 10 µM is less than 30%.
Still for that read-out and setting: the figure for `C=C1CCC2[C@]3(C)CO[C@@H](CCC(=O)O)O[C@@H]3CC[C@@]2(C)[C@@H]1CCOc1ccncc1` (some centres unmarked) [Compound 408] is less than 30%.
Turning to `C=C1CCC2[C@](C)(CO)[C@H](O)CC[C@@]2(C)[C@@H]1CCN1CCC(CO)CC1` (some centres unmarked) [Compound 265], the inhibition at 10 µM is less than 30%.
Same read-out and setting: the figure for `C=C1CCC2[C@]3(C)CO[C@@H](C4CCCC4)O[C@@H]3CC[C@@]2(C)[C@@H]1CCOc1cc(C)ccc1C(=O)O` (stereo partly drawn) [Compound 447, 2-(2-((3R,4aR,6aS,7R,10bR)-3-cyclopentyl-6a,10b-dimethyl-8-dihydromethylenedecahydro-1H-naphtho[2,1-d][1,3]dioxin-7-yl)ethoxy)-4-methylbenzoic acid] is less than 30%; for `C=C1CCC2[C@]3(C)CO[C@@H](C4CCCC4)O[C@@H]3CC[C@@]2(C)[C@@H]1CCOC1CCN(C)CC1` (stereo partly drawn) [Compound 366, 4-(2-((3R,4aR,6aS,7R,10bR)-3-cyclopentyl-6a,10b-dimethyl-8-dihydromethylenedecahydro-1H-naphtho[2,1-d][1,3]dioxin-7-yl)ethoxy)-1-methylpiperidine] it is greater than 60%.
As to `C=C1CCC2[C@]3(C)CO[C@@H](c4ccc(F)c(F)c4)O[C@@H]3CC[C@@]2(C)[C@@H]1CCN1CCC(CO)CC1` (stereo partly drawn) [Compound 130, (1-(2-((3R,4aR,6aS,7R,10bR)-3-(3,4-difluorophenyl)-6a,10b-dimethyl-8-methylenedecahydro-1H-naphtho[2,1-d][1,3]dioxin-7-yl)ethyl)piperidin-4-yl)methanol], the inhibition at 10 µM is less than 30%.
The same measure, in the same setting: the figure for `C=C1CCC2[C@]3(C)CO[C@@H](C4CCCC4)O[C@@H]3CC[C@@]2(C)[C@@H]1CCNc1cnoc1` (stereo partly drawn) [Compound 207, N-(2-((3R,4aR,6aS,7R,10bR)-3-cyclopentyl-6a,10b-dimethyl-8-decahydromethylene-1H-naphtho[2,1-d][1,3]dioxin-7-yl)ethyl)isoxazol-4-amine] is 30 to 60%.
Turning to `C=C1CCC2[C@]3(C)CO[C@@H](C4CCCC4)O[C@@H]3CC[C@@]2(C)[C@@H]1CCOc1cccc(F)c1C(=O)O` (stereo partly drawn) [Compound 452, 2-(2-((3R,4aR,6aS,7R,10bR)-3-cyclopentyl-6a,10b-dimethyl-8-dihydromethylenedecahydro-1H-naphtho[2,1-d][1,3]dioxin-7-yl)ethoxy)-6-fluoro-benzoic acid], the inhibition at 10 µM is 30 to 60%.
In the case of `C=C1CCC2[C@]3(C)CO[C@@H](CCC(=O)OC)O[C@@H]3CC[C@@]2(C)[C@@H]1CCOc1ccncc1` (some centres unmarked) [Compound 405], the inhibition at 10 µM is less than 30%.
On to `C=C1CCC2[C@]3(C)CO[C@@H](C4CCOCC4)O[C@@H]3CC[C@@]2(C)[C@@H]1CCOc1ccncc1` (stereo partly drawn) [Compound 446, 4-(2-((3R,4aR,6aS,7R,10bR)-6a,10b-dimethyl-8-dihydromethylene-3-(tetrahydro-2H-pyran-4-yl)decahydro-1H-naphtho[2,1-d][1,3]dioxin-7-yl)ethoxy)pyridine], for which the inhibition at 10 µM was less than 30%.
Same read-out and setting: as for `C=C1CCC2[C@]3(C)CO[C@@H](c4ccc(F)c(F)c4)O[C@@H]3CC[C@@]2(C)[C@@H]1CCN1C(=O)CCC1=O` (stereo partly drawn) [Compound 214, 1-(2-((3R,4aR,6aS,7R,10bR)-3-(3,4-difluorophenyl)-6a, 10b-dimethyl-8-methylenedecahydro-1H-naphtho[2,1-d][1,3]dioxin-7-yl)ethyl)pyrrolidine-2,5-dione], the figure is greater than 60%; as for `C=C1CCC2[C@]3(C)CO[C@@H](C4CCCC4)O[C@@H]3CC[C@@]2(C)[C@@H]1CCOCc1ccncc1` (stereo partly drawn) [Compound 351, 4-((2-((3R,4aR,6aS,7R,10bR)-3-cyclopentyl-6a,10b-dimethyl-8-dihydromethylenedecahydro-1H-naphtho[2,1-d][1,3]dioxin-7-yl)ethoxy)methyl)pyridine], greater than 60%.
